Laboratory results published in patent US8273769B2, “Phenoxy acetic acid derivatives” (Merck Serono SA, priority 2009, dated 2012).

Experiments:
CRTH2 = target: T1, CRTH2 (Homo sapiens, UniProt Q9Y5Y4); assay: [35S]GTPγS binding assay (CHO-CRTH2 cell membranes); assay type: biochemical; parameters: expressed in transfected cells; host or cells: CHO-CRTH2 cells; details: for IC50: antagonist mode, fixed concentration of PGD2 (EC80); for Emax: inverse agonists, 100% of Emax = activity with 1 μM PGD2
T1 sequence (Q9Y5Y4 1-395): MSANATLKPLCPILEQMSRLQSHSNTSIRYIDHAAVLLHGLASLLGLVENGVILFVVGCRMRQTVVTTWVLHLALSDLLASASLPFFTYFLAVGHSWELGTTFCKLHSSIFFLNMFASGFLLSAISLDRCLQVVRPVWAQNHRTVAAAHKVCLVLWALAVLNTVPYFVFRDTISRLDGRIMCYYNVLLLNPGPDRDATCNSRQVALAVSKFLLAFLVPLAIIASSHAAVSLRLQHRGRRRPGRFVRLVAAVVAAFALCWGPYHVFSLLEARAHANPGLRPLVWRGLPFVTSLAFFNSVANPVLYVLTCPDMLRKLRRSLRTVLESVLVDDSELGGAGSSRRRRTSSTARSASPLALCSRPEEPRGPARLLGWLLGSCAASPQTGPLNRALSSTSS
Procedure: Adherent CHO cells expressing hCRTH2 (Euroscreen, Belgium) were cultured in 225 cm^2 cell culture flasks (Corning, USA) in 30 ml of medium. After two rinses of phosphate buffered saline (PBS), cells were harvested in 10 ml of PBS containing 1 mM EDTA, centrifuged at 500×g for 5 min at 4° C. and frozen at −80° C. The pellet was re-suspended in 50 mM Tris-HCl, pH 7.4, 2 mM EDTA, 250 mM Sucrose, containing protease inhibitor cocktail tablets, (Complete EDTA-free, Roche, Germany) and incubated 30 min at 4° C. Cells were disrupted by nitrogen cavitation (Parr Instruments, USA) at 4° C. (800 p.s.i. for 30 min), and centrifuged at 500×g for 10 min at 4° C. Pellet containing nuclei and cellular debris was discarded and supernatant was centrifuged 60 min at 4° C. at 45000×g. Membrane pellet was re-suspended in storage buffer (10 mM HEPES/KOH pH 7.4, 1 mM EDTA, 250 mM sucrose, protease inhibitor cocktail tablets) using Dounce homogenization and frozen in liquid nitrogen, and stored at −80° C.
The [^35S]GTPγS assay measures the increase in guanine nucleotide exchange at G-proteins in cell membranes, resulting from agonist (PGD2) binding to CRTH2. This process can be monitored in vitro by incubating cell membranes containing G-proteins and CRTH2 with GDP and [^35S]GTPγS, a radiolabeled, hydrolysis-resistant analogue of GTP (see, Harrison et al., Life Sciences 74, 489-508, 2003). The addition of a Compounds of Formula (I) results in binding to CRTH2 and thus in an inhibition of agonist binding, which can be monitored as inhibition of the stimulation of GTP/GDP exchange.
Briefly, Compounds of Formula (I) are incubated in 96-well scintillating white polystyrene plates (Perkin Elmer, USA) in a final volume of 200 μl containing 20 mM HEPES/KOH pH 7.4, 3 mM MgCl2, 10 μg/ml Saponin, 5 μM GDP, 75 mM NaCl and 2% of dimethylsulphoxide (DMSO). Reaction is triggered by the addition of 5-10 μg of CHO-CRTH2 cell membranes and 0.15 nM [^35S]GTPγS. After 60 min incubation at 30° C., reaction is stopped by centrifugation at 700×g, at 4° C. for 10 minutes and supernatant is removed. The radioactivity coming from the [^35S]GTPγS bound on centrifuged cell membranes is recorded using a 1450 Micro-beta scintillation counter. For IC50 determination, increasing concentrations of compounds are incubated in presence of a fixed concentration of PGD2 (EC80). For EC50 measurements, compounds are incubated without addition of PGD2. Basal [^35S]GTPγS activity is determined without addition of any ligands or compounds. 100% [^35S]GTPγS activity is measured by the addition of 1 μM of PGD2.

[1] = system: OVA-induced lung eosinophilia in mice; assay: OVA-induced lung eosinophilia in mice; assay type: in vivo, BALB/c mice; details: BAL fluid, oral gavage
Procedure: BALB/c mice (6-8 weeks old) were immunized with ovalbumin (10 μg i.p) on day 0 and 7. In order to elicit a local inflammatory response in the lung, mice were challenged between day's 15-17 with a nebulised solution of ovalbumin (10 μg/ml; De Vilibiss Ultraneb 2000, once daily for 30 min during the 3 days). On each separate day between 15 and 17 each animal received via oral gavage the test compound, at t−1 h and t+7 h with respect to OVA exposure at t=0 h. Eight hours after the final OVA challenge, bronchoalveolar lavage (BAL) was then carried out. Total cell numbers in the BAL fluid samples were measured using a haemocytometer. Cytospin smears of the BAL fluid samples were prepared by centrifugation at 1200 rpm for 2 min at room temperature and stained using a DiffQuik stain system (Dade Behring) for differential cell counts. […]

Compound | IC50 (CRTH2) [nM] | % inhibition eosinophils (mean ± s.e.m.) ([1]; dose 3 mg/kg) [%] | % inhibition total cells (mean ± s.e.m.) ([1]; dose 3 mg/kg) [%] | % inhibition eosinophils (mean ± s.e.m.) ([1]; dose 10 mg/kg) [%] | % inhibition total cells (mean ± s.e.m.) ([1]; dose 10 mg/kg) [%] | % inhibition eosinophils (mean ± s.e.m.) ([1]; dose 30 mg/kg) [%] | % inhibition total cells (mean ± s.e.m.) ([1]; dose 30 mg/kg) [%] | Emax (CRTH2) [%]
CN(C)S(=O)(=O)c1cncc(C#Cc2cc(Cl)ccc2OCC(=O)O)c1 [Example 35, [4-chloro-2-({5-[(dimethylamino)sulfonyl]pyridin-3-yl}ethynyl)phenoxy]acetic acid] | 126 |  |  |  |  |  |  | 
CCCS(=O)(=O)c1ccc(C)c(C#Cc2cc(Cl)ccc2OCC(=O)O)c1 [Example 38, (4-chloro-2-{[2-methyl-5-(propylsulfonyl)phenyl]ethynyl}phenoxy)acetic acid] | 6 | 29 ± 14 | 21 ± 13 | 54 ± 16 | 42 ± 14 | 81 ± 7 | 67 ± 8 | 
CCCS(=O)(=O)c1ccc(F)c(C#Cc2cc(Cl)ccc2OCC(=O)O)c1 [Example 89, (4-chloro-2-{[2-fluoro-5-(propylsulfonyl)phenyl]ethynyl}phenoxy)acetic acid] |  | 19 ± 18 | 12 ± 15 | 27 ± 10 | 19 ± 8 | 55 ± 11 | 44 ± 10 | 
CC(C)S(=O)(=O)c1ccc(F)c(C#Cc2cc(Cl)ccc2OCC(=O)O)c1 [Example 102, (4-chloro-2-{[2-fluoro-5-(isopropylsulfonyl)phenyl]ethynyl}phenoxy)acetic acid] | 4 |  |  |  |  |  |  | 
CN(C)S(=O)(=O)c1ccc(F)c(C#Cc2cc(Cl)ccc2OCC(=O)O)c1 [Example 107, [4-chloro-2-({5-[(dimethylamino)sulfonyl]-2-fluorophenyl}ethynyl)phenoxy]acetic acid] |  |  |  |  |  |  |  | -13
O=C(O)COc1ccc(Cl)cc1C#Cc1ccc2c(c1)S(=O)(=O)c1ccccc1-2 [Example 154, {4-chloro-2-[(5,5-dioxidodibenzo[b,d]thien-3-yl)ethynyl]phenoxy}acetic acid] |  |  |  |  |  |  |  | -17
